The target of assay [1] is T1, Glutamate receptor 3 (Rattus norvegicus, UniProt P19492). As to the kind of experiment: biochemical.
Assay [2] deals with Glutamate receptor ionotropic, kainate 1 (Rattus norvegicus, UniProt P22756). As to the kind of experiment: biochemical.
The target of assay [3] is T2, Glutamate receptor 2 (Rattus norvegicus, UniProt P19491). As to the kind of experiment: biochemical.
The target of assay [4] is T3, Glutamate receptor 1 (Rattus norvegicus, UniProt P19490). The assay is described as follows: biochemical.
T3 sequence (P19490 whole entry): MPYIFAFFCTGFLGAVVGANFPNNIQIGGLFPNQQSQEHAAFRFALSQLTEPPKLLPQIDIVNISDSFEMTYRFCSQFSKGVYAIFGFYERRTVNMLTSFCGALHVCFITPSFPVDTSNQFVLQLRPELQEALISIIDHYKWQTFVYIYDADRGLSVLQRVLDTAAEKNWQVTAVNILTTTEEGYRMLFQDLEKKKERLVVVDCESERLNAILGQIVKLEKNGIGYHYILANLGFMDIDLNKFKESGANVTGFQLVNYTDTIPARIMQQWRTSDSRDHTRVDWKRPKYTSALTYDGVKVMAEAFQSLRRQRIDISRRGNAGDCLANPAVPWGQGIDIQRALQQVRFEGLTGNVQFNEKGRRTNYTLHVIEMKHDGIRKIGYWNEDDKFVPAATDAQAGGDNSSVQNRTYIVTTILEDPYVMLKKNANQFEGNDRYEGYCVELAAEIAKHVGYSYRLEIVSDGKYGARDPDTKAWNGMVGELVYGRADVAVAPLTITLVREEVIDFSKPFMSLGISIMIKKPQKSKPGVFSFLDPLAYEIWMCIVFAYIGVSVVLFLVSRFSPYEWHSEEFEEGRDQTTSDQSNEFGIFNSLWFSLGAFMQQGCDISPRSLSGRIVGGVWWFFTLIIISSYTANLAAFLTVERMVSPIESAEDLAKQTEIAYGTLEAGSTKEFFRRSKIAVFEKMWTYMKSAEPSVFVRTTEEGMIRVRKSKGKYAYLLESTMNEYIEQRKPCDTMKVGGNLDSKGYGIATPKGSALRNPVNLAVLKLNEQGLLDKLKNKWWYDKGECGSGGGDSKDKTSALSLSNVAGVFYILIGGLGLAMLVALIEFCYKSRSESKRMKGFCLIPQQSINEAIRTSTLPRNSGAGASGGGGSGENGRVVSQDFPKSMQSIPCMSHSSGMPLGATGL
Assay [5] concerns the target Glutamate receptor ionotropic, kainate 2 (Rattus norvegicus, UniProt P42260). The assay is described as follows: Displacement of [3H]kainic acid from rat recombinant iGluR6(V,C,R) receptor expressed in Sf9 cells.
In assay [6] the target is T4, Glutamate receptor 4 (Rattus norvegicus, UniProt P19493). As to the kind of experiment: biochemical.
T4 sequence (P19493 whole entry): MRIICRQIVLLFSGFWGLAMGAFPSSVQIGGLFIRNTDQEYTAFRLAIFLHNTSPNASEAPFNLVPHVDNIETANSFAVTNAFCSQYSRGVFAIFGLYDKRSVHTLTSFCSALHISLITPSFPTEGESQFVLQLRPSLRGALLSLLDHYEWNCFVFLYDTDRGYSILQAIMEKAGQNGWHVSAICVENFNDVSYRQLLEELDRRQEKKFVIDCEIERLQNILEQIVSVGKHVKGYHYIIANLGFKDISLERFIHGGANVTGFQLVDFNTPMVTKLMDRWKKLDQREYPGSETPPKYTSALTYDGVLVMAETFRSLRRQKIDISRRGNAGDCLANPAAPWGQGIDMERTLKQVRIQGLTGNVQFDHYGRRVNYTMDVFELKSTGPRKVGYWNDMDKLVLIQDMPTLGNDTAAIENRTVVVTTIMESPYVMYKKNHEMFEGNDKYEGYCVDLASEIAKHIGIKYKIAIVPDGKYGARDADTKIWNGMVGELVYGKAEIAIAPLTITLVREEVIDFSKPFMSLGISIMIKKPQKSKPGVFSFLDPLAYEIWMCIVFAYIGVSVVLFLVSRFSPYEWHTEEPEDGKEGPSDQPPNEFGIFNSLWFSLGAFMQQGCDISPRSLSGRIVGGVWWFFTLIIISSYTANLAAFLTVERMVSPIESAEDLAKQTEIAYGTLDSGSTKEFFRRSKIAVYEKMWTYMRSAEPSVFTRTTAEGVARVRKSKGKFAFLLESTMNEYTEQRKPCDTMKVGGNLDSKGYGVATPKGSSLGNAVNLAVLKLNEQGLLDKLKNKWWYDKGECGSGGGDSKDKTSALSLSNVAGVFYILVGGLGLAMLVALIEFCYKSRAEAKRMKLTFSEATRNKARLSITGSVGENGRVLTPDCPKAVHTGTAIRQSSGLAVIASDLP
Assay [7] concerns the target T3, Glutamate receptor 1. As to the kind of experiment: Agonist activity at cyclothiazide-desensitized rat recombinant flip iGluR1 expressed in Xenopus laevis oocytes by two electrode voltage-clamp electrophysiology method. Type of assay: functional, cell-based, Oocyte.
In assay [8] the target is T4, Glutamate receptor 4. As to the kind of experiment: Agonist activity at cyclothiazide-desensitized rat recombinant flip iGluR4 expressed in Xenopus laevis oocytes by two electrode voltage-clamp electrophysiology method. Type of assay: functional, cell-based, Oocyte.
In assay [9] the target is T1, Glutamate receptor 3. As to the kind of experiment: Agonist activity at cyclothiazide-desensitized rat recombinant flip iGluR3 expressed in Xenopus laevis oocytes by two electrode voltage-clamp electrophysiology method. Type of assay: functional, cell-based, Oocyte.
Assay [10] has as its target Glutamate receptor ionotropic, kainate 1 (Homo sapiens, UniProt P39086). As to the kind of experiment: Antagonist activity at human iGluR5(Q)1b expressed in CHO-K1 cells by whole cell patch-clamp method. Type of assay: functional, cell-based.
The target in assay [11] is T5, Glutamate receptor 1 (Homo sapiens, UniProt P42261). The assay is described as follows: Agonist activity at cyclothiazide-desensitized human flip iGluR1 expressed in CHO-K1 cells by whole cell patch-clamp method. Type of assay: functional, cell-based.
T5 sequence (P42261 whole entry): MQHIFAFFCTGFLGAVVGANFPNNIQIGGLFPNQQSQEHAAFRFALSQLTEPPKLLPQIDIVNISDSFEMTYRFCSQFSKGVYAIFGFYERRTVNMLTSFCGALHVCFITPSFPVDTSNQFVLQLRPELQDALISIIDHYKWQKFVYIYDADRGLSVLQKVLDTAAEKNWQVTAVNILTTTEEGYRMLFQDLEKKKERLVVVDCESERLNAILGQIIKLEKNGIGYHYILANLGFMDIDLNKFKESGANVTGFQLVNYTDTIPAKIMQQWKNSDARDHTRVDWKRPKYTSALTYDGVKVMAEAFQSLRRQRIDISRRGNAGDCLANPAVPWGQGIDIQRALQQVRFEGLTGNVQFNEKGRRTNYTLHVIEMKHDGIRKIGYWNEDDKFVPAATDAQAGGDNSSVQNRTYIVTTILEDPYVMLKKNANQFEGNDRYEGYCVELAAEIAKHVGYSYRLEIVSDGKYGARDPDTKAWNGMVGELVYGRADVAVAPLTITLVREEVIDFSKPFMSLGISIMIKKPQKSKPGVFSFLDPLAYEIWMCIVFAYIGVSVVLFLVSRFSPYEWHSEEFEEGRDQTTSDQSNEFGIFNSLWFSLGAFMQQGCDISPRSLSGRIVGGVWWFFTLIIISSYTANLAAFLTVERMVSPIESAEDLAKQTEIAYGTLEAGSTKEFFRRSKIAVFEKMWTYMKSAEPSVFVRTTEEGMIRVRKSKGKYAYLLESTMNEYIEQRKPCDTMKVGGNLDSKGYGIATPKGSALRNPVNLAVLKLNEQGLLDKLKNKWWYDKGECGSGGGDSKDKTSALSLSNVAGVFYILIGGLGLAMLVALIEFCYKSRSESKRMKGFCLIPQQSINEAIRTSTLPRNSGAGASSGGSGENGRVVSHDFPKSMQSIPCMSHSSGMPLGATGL
The target of assay [12] is T5, Glutamate receptor 1. As to the kind of experiment: Antagonist activity at human flip iGluR1 expressed in CHO-K1 cells by whole cell patch-clamp method. Type of assay: functional, cell-based.
Assay [13] addresses T2, Glutamate receptor 2.
For assay [14], the target named is T3, Glutamate receptor 1. As to the kind of experiment: Agonist activity at cyclothiazide-desensitized rat recombinant flop iGluR1 expressed in Xenopus laevis oocytes by two electrode voltage-clamp electrophysiology method. It counts as functional, cell-based, Oocyte.

T2 sequence (P19491 whole entry): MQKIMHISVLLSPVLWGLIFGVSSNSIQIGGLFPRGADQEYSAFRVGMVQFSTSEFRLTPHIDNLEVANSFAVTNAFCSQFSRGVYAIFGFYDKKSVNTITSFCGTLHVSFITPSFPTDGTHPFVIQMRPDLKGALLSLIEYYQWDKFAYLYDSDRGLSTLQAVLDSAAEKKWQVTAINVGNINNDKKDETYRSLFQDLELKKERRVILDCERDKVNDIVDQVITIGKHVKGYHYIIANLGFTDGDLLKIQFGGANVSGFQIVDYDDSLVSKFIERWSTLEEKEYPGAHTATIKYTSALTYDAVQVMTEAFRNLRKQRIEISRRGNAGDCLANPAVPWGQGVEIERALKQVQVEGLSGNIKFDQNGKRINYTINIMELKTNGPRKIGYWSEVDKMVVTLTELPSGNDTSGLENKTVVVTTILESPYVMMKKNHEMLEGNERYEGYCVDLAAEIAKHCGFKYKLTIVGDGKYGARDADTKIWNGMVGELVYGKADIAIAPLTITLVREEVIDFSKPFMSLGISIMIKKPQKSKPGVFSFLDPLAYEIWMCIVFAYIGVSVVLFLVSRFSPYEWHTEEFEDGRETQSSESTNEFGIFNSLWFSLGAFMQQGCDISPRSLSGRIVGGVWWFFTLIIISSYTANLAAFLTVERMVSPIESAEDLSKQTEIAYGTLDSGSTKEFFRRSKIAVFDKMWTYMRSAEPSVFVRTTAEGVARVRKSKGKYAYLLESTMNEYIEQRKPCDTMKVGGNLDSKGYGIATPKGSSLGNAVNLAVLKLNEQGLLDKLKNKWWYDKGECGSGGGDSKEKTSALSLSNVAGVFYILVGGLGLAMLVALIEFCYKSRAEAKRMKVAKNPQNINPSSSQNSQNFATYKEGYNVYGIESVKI
T1 sequence (P19492 whole entry): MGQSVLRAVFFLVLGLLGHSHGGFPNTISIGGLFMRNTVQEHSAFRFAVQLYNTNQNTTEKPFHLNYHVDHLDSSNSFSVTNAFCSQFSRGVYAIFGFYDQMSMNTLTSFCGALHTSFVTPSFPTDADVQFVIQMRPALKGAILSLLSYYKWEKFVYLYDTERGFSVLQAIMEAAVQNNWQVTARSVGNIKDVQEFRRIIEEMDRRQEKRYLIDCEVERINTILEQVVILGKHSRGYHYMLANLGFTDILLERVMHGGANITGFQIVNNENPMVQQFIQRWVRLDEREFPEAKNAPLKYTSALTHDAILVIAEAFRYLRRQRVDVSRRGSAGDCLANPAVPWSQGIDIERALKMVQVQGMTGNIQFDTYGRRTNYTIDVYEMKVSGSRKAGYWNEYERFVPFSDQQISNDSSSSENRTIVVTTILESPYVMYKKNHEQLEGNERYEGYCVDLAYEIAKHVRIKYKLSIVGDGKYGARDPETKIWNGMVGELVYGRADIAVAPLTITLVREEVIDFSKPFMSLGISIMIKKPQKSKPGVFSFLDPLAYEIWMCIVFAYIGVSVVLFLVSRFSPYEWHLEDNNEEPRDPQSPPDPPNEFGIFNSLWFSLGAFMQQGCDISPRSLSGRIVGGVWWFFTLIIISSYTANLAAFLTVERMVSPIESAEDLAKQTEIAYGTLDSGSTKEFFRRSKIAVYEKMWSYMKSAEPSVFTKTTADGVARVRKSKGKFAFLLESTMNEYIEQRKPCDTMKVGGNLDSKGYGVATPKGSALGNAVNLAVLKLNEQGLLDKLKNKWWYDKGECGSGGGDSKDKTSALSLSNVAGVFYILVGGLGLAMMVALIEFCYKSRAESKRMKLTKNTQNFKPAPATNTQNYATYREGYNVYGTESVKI

Turning to `CC1(C)Cc2c(n(C[C@H](N)C(=O)O)c(=O)[nH]c2=O)C1`, the inhibitory constant (Ki) at Glutamate receptor 3 [1] was 1.51 µM; in [2], 0.976 µM; on Glutamate receptor 2 [3], 0.126 µM; at Glutamate receptor 1 [4] it was 0.102 µM; in assay [5] it was more than 1000 µM; on Glutamate receptor 4 [6] it was 1.59 µM.
For the compound `N[C@@H](Cn1cc(F)c(=O)[nH]c1=O)C(=O)O`, the concentration for a half-maximal effect (EC50) at Glutamate receptor 1 [7] was determined as 0.38 µM; at Glutamate receptor 4 [8], 11.9 µM; at Glutamate receptor 3 [9], 20.9 µM. Besides, the inhibition constant Ki at Glutamate receptor 3 [1] is 0.07 µM; in [2] it was 1.38 µM; at Glutamate receptor 1 [4] it was 0.0029 µM; in assay [5], more than 100 µM; at Glutamate receptor 4 [6] it was 0.123 µM.
For the compound `N[C@@H](Cn1c2c(c(=O)[nH]c1=O)CSC2)C(=O)O`, the half-maximal inhibitory concentration (IC50) stood at 0.0038 µM in assay [10] and 0.0052 µM in assay [2]. In addition, the EC50 on Glutamate receptor 1 [11] was determined as 18.5 µM; at Glutamate receptor 1 [7] it was 11.8 µM; on Glutamate receptor 4 [8], 24.2 µM; at Glutamate receptor 3 [9], 33.9 µM. For the same compound, the Ki on Glutamate receptor 3 [1] was 0.311 µM; at Glutamate receptor 1 [4], 0.058 µM; in assay [5], more than 1000 µM; at Glutamate receptor 4 [6], 0.288 µM.
Consider `N[C@H](Cn1c2c(c(=O)[nH]c1=O)CCC2)C(=O)O`, for which the Ki on Glutamate receptor 1 [4] was 10.4 µM; at Glutamate receptor 4 [6] it was more than 100 µM.
Turning to `N[C@@H](CCn1c2c(c(=O)[nH]c1=O)CCC2)C(=O)O`, the Ki on Glutamate receptor 3 [1] was more than 100 µM; in assay [2], more than 1000 µM; on Glutamate receptor 2 [3], more than 100 µM; on Glutamate receptor 1 [4] it was more than 100 µM; in assay [5] it was more than 1000 µM; at Glutamate receptor 4 [6], more than 100 µM.
Consider `N[C@@H](Cn1cc(Cl)c(=O)[nH]c1=O)C(=O)O`, for which the Ki at Glutamate receptor 3 [1] was 0.451 µM; in assay [2], 0.047 µM; at Glutamate receptor 1 [4] it was 0.037 µM; in [5], more than 100 µM; on Glutamate receptor 4 [6], 0.561 µM.
`Cc1onc(O)c1CC(N)C(=O)O` (racemic) [(R,S)-AMPA]: the Ki in [5] was more than 1000 µM.
On to `N[C@@H](Cn1c(=O)[nH]c(=O)c2cocc21)C(=O)O`, for which the inhibition constant (Ki) on Glutamate receptor 3 [1] is more than 100 µM; in assay [2], 2.98 µM; on Glutamate receptor 1 [4] it was 35.2 µM; in assay [5], more than 1000 µM; at Glutamate receptor 4 [6], more than 100 µM.
Regarding `N[C@@H](Cn1c(=O)[nH]c(=O)c2sccc21)C(=O)O`, on Glutamate receptor 1 [12], 0.374 µM corresponded to half-maximal inhibition (IC50). The EC50 at Glutamate receptor 1 [11] was 4.1 µM; at Glutamate receptor 1 [7], 7.2 µM; at Glutamate receptor 4 [8], 90 µM; at Glutamate receptor 3 [9], 120 µM; at Glutamate receptor 2 [13], 11.8 µM. For the same compound, the Ki at Glutamate receptor 3 [1] was 0.936 µM; on Glutamate receptor 2 [3], 0.112 µM; on Glutamate receptor 1 [4], 0.05 µM; in assay [5] it was more than 1000 µM; on Glutamate receptor 4 [6] it was 0.804 µM.
With `N[C@@H](Cn1cc(I)c(=O)[nH]c1=O)C(=O)O`, the EC50 at Glutamate receptor 1 [14] turned out to be 33.6 µM. For the same compound, the Ki at Glutamate receptor 3 [1] is 0.976 µM; in assay [2], 0.0024 µM; at Glutamate receptor 1 [4], 0.083 µM; in [5], more than 100 µM; at Glutamate receptor 4 [6] it was 0.738 µM.
As to `N[C@@H](Cn1ccc(=O)[nH]c1=O)C(=O)O` [(S)-WILLARDIINE], the EC50 on Glutamate receptor 1 [14] is 11.5 µM.
With `NC(Cn1ccc(=O)[nH]c1=O)C(=O)O` (stereo not given), the Ki in [2] is more than 100 µM; at Glutamate receptor 1 [4], 0.41 µM; in assay [5] it was more than 1000 µM; on Glutamate receptor 4 [6], 14.2 µM.
Regarding `C=C(C)[C@H]1CN[C@H](C(=O)O)[C@H]1CC(=O)O` [KAINIC ACID], the affinity on Glutamate receptor 4 [6], expressed as Ki, was 3.57 µM.
Consider `N[C@@H](Cn1cc(Br)c(=O)[nH]c1=O)C(=O)O`, for which, at Glutamate receptor 1 [14], the EC50 is 2.8 µM.
On to `N[C@@H](Cn1c2c(c(=O)[nH]c1=O)CCC2)C(=O)O`, for which the EC50 on Glutamate receptor 1 [14] was found to be 24.9 µM. In addition, the Ki at Glutamate receptor 3 [1] is 1.89 µM; in [2], 0.044 µM; at Glutamate receptor 1 [4] it was 0.109 µM; in assay [5], more than 1000 µM; at Glutamate receptor 4 [6], 2.09 µM.
Regarding `N[C@@H](CCn1c2c(c(=O)n(CC[C@H](N)C(=O)O)c1=O)CCC2)C(=O)O`, the Ki is more than 100 µM at Glutamate receptor 3 [1]; more than 1000 µM in assay [2]; more than 100 µM at Glutamate receptor 2 [3]; more than 100 µM at Glutamate receptor 1 [4]; more than 100 µM in assay [5]; more than 100 µM at Glutamate receptor 4 [6].
`NC(Cn1cc(Br)c(=O)[nH]c1=O)C(=O)O` (racemic): the Ki on Glutamate receptor 3 [1] is 0.434 µM; in assay [2] it was 0.0148 µM; on Glutamate receptor 1 [4] it was 0.035 µM; in assay [5] it was more than 100 µM; at Glutamate receptor 4 [6], 0.656 µM.
Consider `N[C@@H](Cn1c(=O)[nH]c(=O)c2ccccc21)C(=O)O`, for which the Ki at Glutamate receptor 3 [1] was 6.91 µM; in [2], 0.49 µM; on Glutamate receptor 2 [3] it was 3.39 µM; on Glutamate receptor 1 [4], 2.39 µM; in assay [5], more than 1000 µM; at Glutamate receptor 4 [6] it was 15.7 µM.

For the origin of these results see ChEMBL document CHEMBL1140154, “1H-cyclopentapyrimidine-2,4(1H,3H)-dione-related ionotropic glutamate receptors ligands. structure-activity relationships and identification of potent and Selective iGluR5 modulators” (J Med Chem, 2008).
